Experimental findings from patent publication US20250340577A1, “BETA-LACTOMASE INHIBITORS AND USES THEREOF” (Case Western Reserve University, priority 2021, published 2025) are described below.

One assay relates to M9 clinical. As to the kind of experiment: MIC of antibiotics in combination with 10 μg/mL of ceftolozane-like BATSIs. It is filed as cell-based. To be noted: CAZ alone.
The test system of a further assay is blaCMY-2. The assay is described as above. It is filed as cell-based. To be noted: for MIC values of antibiotics in combination with 10 μg/mL of compounds: CAZ + 10 μg/mL compound.
The next assay deals with blaPDC-3E221K. The description is as above. It is filed as cell-based. The following applies: for MIC values of antibiotics in combination with 10 μg/mL of compounds: CAZ + 10 μg/mL compound.
Another assay relates to blaADC-7. Described as above. To be noted: for MIC values of antibiotics in combination with 10 μg/mL of compounds: CAZ + 10 μg/mL compound. It counts as cell-based.
The next assay has as its system 18SH. The assay is described as above. It counts as cell-based. The following applies: for MIC values of antibiotics in combination with 10 μg/mL of compounds: CAZ + 10 μg/mL compound.
The next assay concerns K. pneum blaKPC-2. Described as above. The following applies: for MIC values of antibiotics in combination with 10 μg/mL of compounds: FEP + 10 μg/mL compound. It is filed as cell-based.
A further assay relates to K. pneumoniae Kp1. As to the kind of experiment: Survival of mice infected IV with K. pneumoniae Kp1. It is filed as in vivo. The following applies: C57BL/6 mice infected IV with KP1; treated IP at infection, 18 h and 24 h; cefepime 100 mg/kg/dose; cefepime+MB076 at 1:4 ratio. As to the method: FIG. 1 illustrates the survival curve of mice infected IV with K. pneumoniae Kp1 and treated with cefepime alone or in combination with MB076. Five male C57BL/6 mice per treatment were infected IV via the tail-vein with 2.1×10^8 CFU/mouse and treated with placebo control (phosphate-buffered saline), cefepime (100 mg/kg/dose), or cefepime and MB076.
To determine […] activity of MB076 we used cefepime with or without MB076 in mice infected IV with the pan drug resistant strain KP1 and treated IP at the time of infection with placebo control, cefepime, or cefepime+MB076 (at 1:4 ratio). Doses were repeated the following morning and afternoon (18 h and 24 h after infection, respectively). All mice treated with placebo or cefepime alone died, whereas all mice treated with either ratio of MB076 plus cefepime survived.

Assay [1] relates to Klebsiella pneumonia/BAA-1705. In words: MIC of MB076 alone or in combination with cefepime or meropenem. It is filed as cell-based. The following applies: Klebsiella pneumoniae, BAA1705; single agent; read-out: MIC. As for the experimental part: (§1) MICs were determined by the Agar microdilution method, following CLSI guidelines. Compounds were tested at fixed concentration of 4 ug/ml in combination with cefepime.

Assay [2] has as its system Klebsiella pneumonia/FDA-CDC AR-BANK#0098. Described as above. To be noted: Klebsiella pneumoniae; single agent; read-out: MIC. It is filed as cell-based. As for the experimental part: as §1
Assay [3] relates to Klebsiella pneumonia/FDA-CDC AR-BANK#0097. The assay is described as above. To be noted: Klebsiella pneumoniae; single agent; read-out: MIC. It counts as cell-based. As for the experimental part:
as §1

For another assay, the system named is blaCTXM-9. In words: MIC of antibiotics in combination with 10 μg/mL of ceftolozane-like BATSIs. It counts as cell-based. To be noted: for MIC values of antibiotics in combination with 10 μg/mL of compounds: FEP + 10 μg/mL compound.
The next assay has as its system K. pneum KPC-Kpn. The assay is described as above. It counts as cell-based. To be noted: for MIC values of antibiotics in combination with 10 μg/mL of compounds: FEP + 10 μg/mL compound.
The next assay deals with K. pneumoniae 427. In words: MIC with cefepime, agar microdilution, CLSI. It is filed as cell-based. To be noted: cefepime alone; TEM-1, SHV-1, CTX-M-3. As for the experimental part: (§2) Minimum inhibitory concentration (MIC) of MB076 and derivatives (PCF_038-043) in combination with cefepime.
as §1

The test system of another assay is K. pneumoniae ST258 B5. As to the kind of experiment: MIC with cefepime, agar microdilution, CLSI. It counts as cell-based. The following applies: cefepime alone; KPC-2. As to the method:
as §2, §1

A further assay concerns E. coli 29838. As to the kind of experiment: MIC with cefepime, agar microdilution, CLSI. The following applies: cefepime alone; CTX-M-14, TEM-1. It is filed as cell-based. As to the method:
as §2, §1

The next assay has as its system K. pneumoniae 34700. In words: MIC with cefepime, agar microdilution, CLSI. It is filed as cell-based. To be noted: cefepime alone; CTX-M-15, SHV, TEM. As to the method:
as §2, §1

For a further assay, the system named is K. pneumoniae 255. As to the kind of experiment: MIC with cefepime, agar microdilution, CLSI. It counts as cell-based. To be noted: cefepime alone; TEM-1, SHV-2. As to the method:
as §2, §1

The subject of assay [4] is E. coli DH10B pBC-SK PDC-3. As to the kind of experiment: MIC with cefepime, agar microdilution, CLSI. It counts as cell-based. The following applies: cefepime alone. As for the experimental part:
as §2, §1

The next assay relates to E. coli DH10B pBC-SK P99. In words: MIC with cefepime, agar microdilution, CLSI. It counts as cell-based. The following applies: cefepime alone. As to the method:
as §2, §1

The next assay concerns K. pneumoniae 253. As to the kind of experiment: MIC with cefepime, agar microdilution, CLSI. It counts as cell-based. To be noted: cefepime alone; TEM-12, SHV-5, CTX-M. As for the experimental part: as §2, §1
In a further assay the test system is K. pneumoniae 266. In words: MIC with cefepime, agar microdilution, CLSI. It is filed as cell-based. The following applies: cefepime alone; SHV-5. As to the method:
as §2, §1

Another assay deals with E. coli ATCC BAA202. As to the kind of experiment: MIC with cefepime, agar microdilution, CLSI. It is filed as cell-based. The following applies: cefepime alone; SHV-1. As to the method: as §2, §1
The test system of a further assay is E. coli pLTCF2. In words: MIC with cefepime, agar microdilution, CLSI. It is filed as cell-based. The following applies: cefepime alone. As for the experimental part:
as §2, §1

Another assay relates to A. baumannii 0057. As to the kind of experiment: MIC with cefepime, agar microdilution, CLSI. To be noted: cefepime alone; ADC-7. It is filed as cell-based. As to the method: as §2, §1
Assay [5] has as its system E. coli DH10B pBC-SK SHV-2. As to the kind of experiment: MIC with cefepime, agar microdilution, CLSI. To be noted: cefepime alone. It is filed as cell-based. As to the method: as §2, §1
The test system of assay [6] is K. pneumoniae original KPC-2. In words: MIC with cefepime, agar microdilution, CLSI. The following applies: cefepime alone. It counts as cell-based. As for the experimental part: as §2, §1
The subject of another assay is K. pneumoniae ST17. In words: MIC with cefepime, agar microdilution, CLSI. It counts as cell-based. The following applies: cefepime alone; KPC-2, TEM, SHV, CTX-M-Group 1. As to the method:
as §2, §1

Assay [7] relates to E. coli DH10B pBC-SK control. In words: MIC with cefepime, agar microdilution, CLSI. It is filed as cell-based. The following applies: cefepime alone; B-lactamases none. As for the experimental part:
as §2, §1

Another assay concerns E. coli pLTCF1. In words: MIC with cefepime, agar microdilution, CLSI. It counts as cell-based. The following applies: cefepime alone; CTX-M group 9. As to the method:
as §2, §1

Assay [8] relates to E. coli DH10B pBC-SK KPC-2. In words: MIC with cefepime, agar microdilution, CLSI. The following applies: cefepime alone. It is filed as cell-based. As for the experimental part:
as §2, §1

A further assay concerns K. pneumoniae ST258 C3. In words: MIC with cefepime, agar microdilution, CLSI. The following applies: cefepime alone; KPC-3. It counts as cell-based. As to the method: as §2, §1
The subject of a further assay is NDM-1 pHSG298. In words: MIC of antibiotics in combination with 10 μg/mL of ceftolozane-like BATSIs. To be noted: IMI alone. It counts as cell-based.
The test system of the next assay is HUMC1 Abspp. Described as above. It is filed as cell-based. To be noted: SULB alone.

As for `CC(C)(O/N=C(\C(=O)N[C@@H]1C(=O)N2C(C(=O)[O-])=C(C[n+]3ccccc3)CS[C@H]12)c1csc(N)n1)C(=O)O` [CAZ, ceftazidime, reference compound], the MIC of antibiotic entry in the assay on M9 clinical was “CAZ >32 mg/mL”; in the assay on blaCMY-2 (CAZ alone) it was “CAZ 128 mg/mL”; in the assay on blaPDC-3E221K (CAZ alone), “CAZ 32 mg/mL”; in the assay on blaADC-7 (CAZ alone), “CAZ 16 mg/mL”; in the assay on 18SH (CAZ alone), “CAZ 64 mg/mL”.

In the case of `CO/N=C(\C(=O)N[C@@H]1C(=O)N2C(C(=O)[O-])=C(C[N+]3(C)CCCC3)CS[C@H]12)c1csc(N)n1` [Cefepime, cefepime, reference compound], the MIC of antibiotic with K. pneum blaKPC-2 (FEP alone) is 16/32; in the assay on blaCTXM-9 (FEP alone), “FEP 8 mg/mL”; in the assay on K. pneum KPC-Kpn (FEP alone), “FEP 32 mg/mL”. In addition, the “Survival of infected mice” value in the assay with K. pneumoniae Kp1 is on record as “died”. Moreover, the MIC (commonly the least concentration at which growth counts as inhibited) is more than 32 µg/mL in assay [1], 32 µg/mL in [2] and more than 32 µg/mL in [3]. The MIC of cefepime with K. pneumoniae 427 was 8 µg/mL; in the assay on K. pneumoniae ST258 B5, 32 µg/mL; in the assay with E. coli 29838, 4 µg/mL; in the assay with K. pneumoniae 34700, 32 µg/mL; in the assay on K. pneumoniae 255, 4 µg/mL; in assay [4], less than 0.25 µg/mL. Besides, the MIC of cefepime in the assay with E. coli DH10B pBC-SK P99 was less than 0.25 µg/mL; in the assay on K. pneumoniae 253 it was 32 µg/mL; in the assay with K. pneumoniae 266 it was 2 µg/mL; with E. coli ATCC BAA202 it was 1 µg/mL; in the assay on E. coli pLTCF2, 1 µg/mL; in the assay with A. baumannii 0057 it was 64 µg/mL. For the same compound, the MIC of cefepime in assay [5] was 4 µg/mL; in assay [6] it was 8 µg/mL; with K. pneumoniae ST17 it was 64 µg/mL; in assay [7] it was less than 0.25 µg/mL; with E. coli pLTCF1 it was 8 µg/mL; in assay [8] it was 8 µg/mL. Further, in the assay on K. pneumoniae ST258 C3, the MIC of cefepime came to 8 µg/mL.

Turning to `C[C@@H](O)[C@H]1C(=O)N2C(C(=O)O)=C(SCCN=CN)C[C@H]12` [IMI], in the assay with NDM-1 pHSG298, the MIC of antibiotic entry is listed as “IMI 8 mg/mL”.

As for `CC(C)(O/N=C(\C(=O)NCB(O)O)c1nsc(N)n1)C(=O)O` [PCF_013], the “MIC values of antibiotics in combination with 10 μg/mL of compounds” value (“MIC values of antibiotics in combination” below) stood at 16 µg/mL in the assay on K. pneum blaKPC-2; 64 µg/mL with blaCMY-2; 8 µg/mL in the assay with blaPDC-3E221K; 4 µg/mL with blaADC-7; 4 µg/mL with blaCTXM-9; 16 µg/mL in the assay on K. pneum KPC-Kpn. In addition, in the assay on 18SH, the “MIC values of antibiotics in combination” value was determined as 64 µg/mL.

As for `CC(C)(O/N=C(\C(=O)N[C@@H](Cn1cc(C(=O)O)nn1)B(O)O)c1nsc(N)n1)C(=O)O` [PCF_014], the “MIC values of antibiotics in combination” value in the assay with K. pneum blaKPC-2 turned out to be 32 µg/mL; with blaCMY-2, 64 µg/mL; with blaPDC-3E221K it was 32 µg/mL; in the assay with blaADC-7, 8 µg/mL; in the assay on blaCTXM-9 it was 2 µg/mL; in the assay with K. pneum KPC-Kpn, 32 µg/mL. For the same compound, in the assay on 18SH, the “MIC values of antibiotics in combination” value amounted to 64 µg/mL.

In the case of `CC1(C)[C@H](C(=O)O)N2C(=O)C[C@H]2S1(=O)=O` [SULB, sulbactam], the MIC of antibiotic result in the assay with HUMC1 Abspp was “SULB 4 mg/mL”.
